In brackets after ≈: the same amount, converted by molar mass.
Assay: Celecoxib solubility in PBS with Tween 80
Type: physicochemical
Conditions: PBS with 0.2% Tween 80, aqueous with cosolvent or surfactant or cyclodextrin

## Cc1ccc(-c2cc(C(F)(F)F)nn2-c2ccc(S(N)(=O)=O)cc2)cc1 [celecoxib]
  solubility: 100 to 200 µg/mL (≈ 262 to 524 µM)

Source: patent US9795679B2, “Biodegradable compositions suitable for controlled release” (INGELL TECHNOLOGIES HOLDING B.V., priority 2011, dated 2017)
